Results: PubChem BioAssay AID588462 (The Scripps Research Institute Molecular Screening Center, 2011)
Active and inactive are the calls of the source. No rule for the calls is given here.

How the values were obtained:
Test in all cases: PAD1-3 enzyme inhibition potency, late-stage follow-up, biochemical, colorimetric, BAEE substrate, recombinant PAD1-3 (AID 588462)
[1] = biological target: Protein-arginine deiminase type-3 (Homo sapiens) (UniProt Q9ULW8); details: recombinant PAD1-3, BAEE citrullination, colorimetric absorbance; PAD3
Chain of Protein-arginine deiminase type-3 (Homo sapiens) (Q9ULW8 whole entry, looked up): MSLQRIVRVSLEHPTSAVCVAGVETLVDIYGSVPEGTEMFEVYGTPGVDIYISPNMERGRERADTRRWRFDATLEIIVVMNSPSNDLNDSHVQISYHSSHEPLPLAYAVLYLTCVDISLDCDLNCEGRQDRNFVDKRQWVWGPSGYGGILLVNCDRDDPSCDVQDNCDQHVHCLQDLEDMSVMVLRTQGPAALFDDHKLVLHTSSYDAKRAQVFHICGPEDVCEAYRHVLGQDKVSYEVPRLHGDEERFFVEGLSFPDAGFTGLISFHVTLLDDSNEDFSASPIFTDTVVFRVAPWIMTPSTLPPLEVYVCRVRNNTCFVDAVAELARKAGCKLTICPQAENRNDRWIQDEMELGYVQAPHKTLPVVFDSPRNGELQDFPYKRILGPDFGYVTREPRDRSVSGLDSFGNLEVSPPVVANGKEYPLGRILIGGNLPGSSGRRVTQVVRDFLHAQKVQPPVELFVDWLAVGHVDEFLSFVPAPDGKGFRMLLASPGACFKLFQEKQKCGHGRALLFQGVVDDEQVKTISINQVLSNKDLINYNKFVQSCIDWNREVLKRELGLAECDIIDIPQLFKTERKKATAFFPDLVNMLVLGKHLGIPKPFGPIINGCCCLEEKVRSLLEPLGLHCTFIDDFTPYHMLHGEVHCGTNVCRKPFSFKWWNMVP

[2] = biological target: Protein-arginine deiminase type-2 (Homo sapiens) (UniProt Q9Y2J8); details: recombinant PAD1-3, BAEE citrullination, colorimetric absorbance; PAD2
Chain of Protein-arginine deiminase type-2 (Homo sapiens) (Q9Y2J8 whole entry, looked up): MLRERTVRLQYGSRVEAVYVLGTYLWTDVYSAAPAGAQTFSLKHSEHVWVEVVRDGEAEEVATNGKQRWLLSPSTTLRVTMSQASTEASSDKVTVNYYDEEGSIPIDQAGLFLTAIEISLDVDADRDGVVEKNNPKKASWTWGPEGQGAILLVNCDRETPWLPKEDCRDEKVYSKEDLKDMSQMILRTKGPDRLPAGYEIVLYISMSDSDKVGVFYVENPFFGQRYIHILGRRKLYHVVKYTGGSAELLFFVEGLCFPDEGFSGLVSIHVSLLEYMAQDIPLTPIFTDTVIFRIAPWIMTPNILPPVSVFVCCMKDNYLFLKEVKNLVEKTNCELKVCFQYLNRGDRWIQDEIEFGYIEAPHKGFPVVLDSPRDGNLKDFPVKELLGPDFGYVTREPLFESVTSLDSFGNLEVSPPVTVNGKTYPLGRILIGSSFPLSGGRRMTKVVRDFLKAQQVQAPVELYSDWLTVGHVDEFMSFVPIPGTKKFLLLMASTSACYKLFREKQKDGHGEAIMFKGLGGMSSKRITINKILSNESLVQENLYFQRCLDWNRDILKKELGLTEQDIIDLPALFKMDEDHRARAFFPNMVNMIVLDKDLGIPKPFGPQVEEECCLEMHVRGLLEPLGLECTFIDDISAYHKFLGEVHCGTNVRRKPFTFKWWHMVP

[3] = biological target: Protein-arginine deiminase type-1 (Homo sapiens) (UniProt Q9ULC6); details: recombinant PAD1-3, BAEE citrullination, colorimetric absorbance; PAD1
Chain of Protein-arginine deiminase type-1 (Homo sapiens) (Q9ULC6 whole entry, looked up): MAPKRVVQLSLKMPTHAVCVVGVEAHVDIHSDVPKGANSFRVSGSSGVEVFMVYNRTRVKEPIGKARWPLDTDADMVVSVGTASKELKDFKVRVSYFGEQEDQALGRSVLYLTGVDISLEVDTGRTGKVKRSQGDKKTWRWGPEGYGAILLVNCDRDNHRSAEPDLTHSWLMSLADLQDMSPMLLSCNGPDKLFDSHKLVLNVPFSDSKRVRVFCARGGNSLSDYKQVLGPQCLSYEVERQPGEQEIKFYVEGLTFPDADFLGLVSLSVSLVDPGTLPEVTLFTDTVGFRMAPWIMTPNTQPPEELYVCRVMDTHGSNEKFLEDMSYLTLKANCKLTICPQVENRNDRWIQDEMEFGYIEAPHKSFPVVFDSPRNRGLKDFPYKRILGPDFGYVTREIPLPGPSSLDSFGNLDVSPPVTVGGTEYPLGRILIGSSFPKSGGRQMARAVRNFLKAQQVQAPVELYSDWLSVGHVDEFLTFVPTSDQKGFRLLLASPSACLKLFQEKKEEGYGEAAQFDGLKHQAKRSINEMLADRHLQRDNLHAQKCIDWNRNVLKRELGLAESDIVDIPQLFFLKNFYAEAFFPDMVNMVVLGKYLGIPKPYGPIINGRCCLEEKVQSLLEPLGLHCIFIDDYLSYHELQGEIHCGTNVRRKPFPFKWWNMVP

- IC50 [1]: 0.43 µM
- IC50 [2]: inactive
- IC50 [3]: inactive
Structure (SMILES): COC1=C(N)C(=O)c2nc(-c3nc(C(=O)O)c(C)c(-c4ccc(OC)c(OC)c4O)c3N)ccc2C1=O
